Laboratory results: US6762152B1, “Substituted benzoyl ketones, methods for producing them and their use as herbicides” (Bayer Aktiengesellschaft, priority 1999, dated 2004)
Like-named read-outs stand apart in the source and are kept apart here.

What was measured:
[1] = logP by HPLC, reverse-phase column (C 18), acidic range; format: physicochemical
Procedure: Temperature: 43° C. (a) Mobile phases for the determination in the acidic range: 0.1% aqueous phosphoric acid, acetonitrile; linear gradient from 10% acetonitrile to 90% acetonitrile—the corresponding data in Table 1 are labelled^a). […] Temperature: 43° C. (a) Mobile phases for the determination in the acidic range: 0.1% aqueous phosphoric acid, acetonitrile; linear gradient from 10% acetonitrile to 90% acetonitrile—the corresponding data in Table 2 are labelled^a).

[2] = test system: weeds; assay: Post-emergence test, weeds; format: in vivo; details: plants of 5 to 15 cm sprayed, rated after three weeks
Procedure: (§1) Solvent: 5 parts by weight of acetone
(§2) Emulsifier: 1 part by weight of alkylaryl polyglycol ether
To produce a suitable preparation of active compound, 1 part by weight of active compound is mixed with the stated amount of solvent, the stated amount of emulsifier is added and the concentrate is diluted with water to the desired concentration.
Test plants of a height of 5 to 15 cm are sprayed with the preparation of active compound such that the particular amounts of active compound desired are applied per unit area. The concentration of the spray liquor is chosen so that the particular amounts of active compound are applied in 1000 l of water/ha.
(§3) After three weeks, the degree of damage to the plants is rated in % damage in comparison to the development of the untreated control.
0%=no effect (like untreated control)

[3] = test system: crop plants, such as, for example, maize; assay: Pre-emergence test, crop plant tolerance; format: in vivo; details: rated after three weeks
Source text: as §1, §2
Seeds of the test plants are sown in normal soil.
as §3

[4] = test system: weeds; assay: Pre-emergence test, weeds; format: in vivo; details: soil sprayed, rated after three weeks
Procedure: Pre-emergence Test Solvent: 5 parts by weight of acetone Emulsifier: 1 part by weight of alkylaryl polyglycol ether To produce a suitable preparation of active compound, 1 part by weight of active compound is mixed with the stated amount of solvent, the stated amount of emulsifier is added and the concentrate is diluted with water to the desired concentration. Seeds of the test plants are sown in normal soil. After about 24 hours, the soil is sprayed with the preparation of active compound such that the particuiar amount of active compound desired is applied per unit area. The concentration of the spray liquor is chosen so that the particular amount of active compound desired is applied in 1000 litres of water per hectare. After three weeks, the degree of damage to the plants is rated in % damage in comparison to the development of the untreated control. The figures denote: 0%=no effect (like untreated control) 100%=total destruction

[5] = a) acidic range: 0.1% aqueous phosphoric acid, acetonitrile, 43° C., Table 1

| logP [1] | Structure (SMILES) | activity against weeds [2] | tolerated by crop plants [3] | activity against weeds [4] | logP [1, 5] | also measured |
| --- | --- | --- | --- | --- | --- | --- |
| (IA) logP = 1.74^a) | CSc1nn(Cc2cc(S(C)(=O)=O)ccc2C(=O)C(C#N)C(=O)C2CC2)c(=O)n1C (stereo not drawn) [Example 9] |  |  |  |  |  |
| (IA) logP = 2.28^a) | CN(C)c1nn(Cc2cc(F)ccc2C(=O)C(C#N)C(=O)C2CC2)c(=O)n1C (stereo not drawn) [Example 7] |  |  |  |  |  |
|  | CSc1nn(Cc2cc(C(F)(F)F)ccc2C(=O)C(C#N)C(=O)C2CC2)c(=O)n1C1CC1 (stereo not drawn) [Example 2] | strong activity | tolerated well | strong activity | (IA) logP = 2.92^a) |  |
|  | CCOc1nn(Cc2cc(C(F)(F)F)ccc2C(=O)O)c(=O)n1C [III-2, 5-ethoxy-4-methyl-2-(2-carboxy-5-trifluoromethyl-benzyl)-2,4-dihydro-3H-1,2,4-triazol-3-one] |  |  |  |  | chromatographic logP ([1]; reverse-phase HPLC column (C 18); a) acidic range, starting material of formula (III)): 2.18 |
|  | Cn1c(C(F)(F)F)nn(Cc2c(Cl)ccc(C(=O)O)c2Cl)c1=O [III-3, 4-methyl-5-trifluoromethyl-2-(2,6-dichloro-3-carboxy-benzyl)-2,4-dihydro-3H-1,2,4-triazol-3-one] |  |  |  |  | melting point: 207 °C |
|  | CCOc1nn(Cc2cc(C(F)(F)F)ccc2C(=O)C(C#N)C(=O)C2CC2)c(=O)n1C1CC1 (stereo not drawn) [Example 1, 3-cyclopropyl-2-{2-[4-(cyclopropyl-3-ethoxy-5-oxo-4,5-dihydro-1H-1,2,4-triazol-1-yl)-methyl]4-trifluoromethyl-benzoyl}-3-oxo-propanenitrile] | strong activity | tolerated well | strong activity |  | chromatographic logP ([1]; reverse-phase HPLC column (C 18), determined at pH=2): 3.35 |
| (IA) logP = 2.35^a) | Cc1nn(Cc2cc(C(F)(F)F)ccc2C(=O)C(C#N)C(=O)C2CC2)c(=O)n1C (stereo not drawn) [Example 10] |  |  |  |  |  |
|  | CCOc1nn(Cc2cc(Br)ccc2C(=O)C(C#N)C(=O)C2CC2)c(=O)n1C (stereo not drawn) [Example 6] | strong activity | tolerated well | strong activity | (IA) logP = 2.94^a) |  |
|  | CCOc1nn(Cc2cc(C(F)(F)F)ccc2C(=O)C(C#N)C(=O)C2CC2)c(=O)n1C (stereo not drawn) [Example 3] | strong activity | tolerated well | strong activity | (IA) logP = 3.03^a) |  |
| (IA) logP = 2.56^a) | COc1nn(Cc2cc(F)ccc2C(=O)C(C#N)C(=O)C2CC2)c(=O)n1C1CC1 (stereo not drawn) [Example 8] |  |  |  |  |  |
|  | CCOn1c(CC)nn(Cc2cc(C(F)(F)F)ccc2C(=O)c2c(C(=O)OC)noc2C2CC2)c1=O [IV-1, (5-cyclopropyl-3-methoxycarbonyl-isoxazol-4-yl)-[2-(4-ethoxy-3-ethyl-5-oxo-4,5-dihydro-[1,2,4]-triazol-1-yl-methyl)-4-trifluoromethyl-phenyl]-methanone] |  |  |  |  | chromatographic logP ([1]; reverse-phase HPLC column (C 18), determined at pH=2.3, starting material of formula (IV)): 3.56 |
|  | CSc1nn(Cc2cc(Br)ccc2C(=O)C(C#N)C(=O)C2CC2)c(=O)n1C (stereo not drawn) [Example 5] | strong activity | tolerated well | strong activity | (IA) logP = 2.83^a) |  |
